Measured values reported in the METLIN SMRT retention time set (Domingo-Almenara et al. 2019).

Assay: gradient 5% acetonitrile 3 min, to 50% in 2 min, to 85% in 15 min, held 3 min, 100 µL/min
Details: column: Zorbax Extend-C18 2.1 x 50 mm; eluents: water / acetonitrile, 0.1% formic acid
How it was run: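 Pure standards were run in mixtures of ~100 molecules by HPLC coupled to a quadrupole time-of-flight mass spectrometer. The column was a Zorbax Extend-C18 (2.1 × 50 mm, 1.8 μm) at 100 μL/min, with water and acetonitrile each containing 0.1% formic acid, in positive and negative ionization mode. Dead and dwell volumes were 40 μL and 900 μL. Retention time was taken from computationally picked adduct peaks, each manually inspected, with data collected over 3 months.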

SMILES | RP-LC retention time [s]
O=S(=O)(Cc1ccccc1Cl)N(CCc1cccs1)Cc1ccco1 | 1080
CC1(C)Cc2cccc(OCC(=O)Nc3cccc(-c4ccn[nH]4)c3)c2O1 | 775
Cc1cnc(C2CN(Cc3cccc(OC(F)(F)F)c3)C2)n1CC1CC1 | 594
O=S(=O)(c1ccc(F)c(F)c1)N1CCC(CN2CCCCCC2)CC1 | 666
COc1cc(OC)c(NC(=O)C2CCN(S(=O)(=O)c3cn(C(C)C)cn3)CC2)cc1Cl | 814
CC(C)c1noc(-c2cc(=O)n(CC(=O)Nc3cccc(C#N)c3)c3ccccc23)n1 | 967
Cc1ccc(-c2nc3nc(C)cc(NCc4ccc5c(c4)OCO5)n3n2)cc1 | 892
Cc1ccc2nc(-c3ccccc3)c(Nc3ccc(Cl)cc3)n2c1 | 755
O=S(=O)(c1cc(-c2nnc(C3CCC3)o2)co1)N1CCN(c2ccc(F)cc2)CC1 | 1250
CCN1CCn2cc(S(=O)(=O)N3CCN(c4cccc(C)c4)CC3)cc2C1=O | 858
O=S(=O)(Cc1ccc(Cl)cc1)N1CCC(n2c(-c3ccco3)nc3cccnc32)C1 (stereo not drawn) | 927
O=C(Cn1cnc2nc(N3CCC(C(=O)NC4CC4)CC3)sc2c1=O)NC1CCCC1 | 609
CCOc1ccccc1NC(=O)N1CCc2cn(CCOC)c3cccc(c23)C1 | 827
COc1ccc(-c2nc(-c3cccc(-c4ccn[nH]4)c3)no2)cc1F | 978
Cc1ccc(-c2csc(NC(=O)CCc3nc(CSc4nc5ccccc5o4)no3)n2)cc1 | 1130
COc1ccc(Cn2ccc3ccc(C(=O)NO)cc32)cc1 | 782
Cc1cc(-c2ccc(S(=O)(=O)N3CCC(C(=O)NCC4CCCCC4)CC3)o2)n[nH]1 | 840
Cc1cc(C)n(CCN(C(=O)c2ccc([N+](=O)[O-])s2)c2nc3ccccc3s2)n1 | 1020
CC(C)(C)NCC(O)c1cc(Cl)c(N)c(C(F)(F)F)c1 (stereo not drawn) | 708
CCC(=O)N1CC(c2nc(-c3ccc(F)cc3)no2)C2(CCOCC2)C1 (stereo not drawn) | 800
CCCn1cc(CCNC(=O)Nc2cc(C)cc(C)c2)c2cccnc21 | 736
CCCCc1ccc(NC(=O)NC2CCN(c3cc(N4CCCC4)cnn3)C2)cc1 (stereo not drawn) | 814
CCOC(=O)C1CCN(C(=O)COc2ccc(NC(C)=O)cn2)CC1 | 633

SMILES | RP-LC retention time [s]
O=C(NC1CCCCCCC1)C1CCCN(S(=O)(=O)c2c[nH]c(C(=O)N3CCCC3)c2)C1 (stereo not drawn) | 854
Cc1ccc(CNC(=O)C2(C)CN(S(C)(=O)=O)CC(=O)N2Cc2ccc(Cl)cc2)cc1 (stereo not drawn) | 906
COC(=O)c1c(C)[nH]c(C(=O)N2CCCC(C(=O)NCc3ccc(OC(C)C)cc3)C2)c1C (stereo not drawn) | 812
CN(C)C[C@@H]1CN(c2ncccn2)C[C@H]1NC(=O)NCc1ccco1 | 550
O=C(CSCc1ccccc1)NCCS(=O)(=O)N1CCN(c2ncccn2)CC1 | 746
CCCn1c(C)cnc1C1CN(C(=O)c2ccoc2)C1 | 573
O=C(Nc1ccc(Cl)cc1)C(=O)c1c[nH]c2ccccc12 | 1030
CCSCCOC(=O)C1=C(C)NC2=C(C(=O)C(C(=O)OC)C(C)C2)C1c1ccccc1OC (stereo not drawn) | 967
CC(C)Cc1cc(-c2nn3c(COc4ccc(Br)cc4)nnc3s2)n[nH]1 | 1030
Fc1ccccc1N1CCN(c2ncccc2-c2nc(-c3ccccc3)no2)CC1 | 1390
O=C(CCc1csc(NC(=O)c2cccs2)n1)Nc1ccc2c(c1)OCCO2 | 733
CN(C)C(=O)C1CCc2sc(C(=O)N3CCOCC3)cc2C1 (stereo not drawn) | 614
COc1ccc(S(=O)(=O)N2CCN(CCc3cn(C)c4ncccc34)CC2)cc1Cl | 654
Cc1ccc(Nc2c(-c3ccc(Br)cc3)nc3cnccn23)cc1Cl | 1180
CCN(c1ccccc1)S(=O)(=O)c1ccc2[nH]c(=O)[nH]c2c1 | 655
CCCCN(CC)S(=O)(=O)c1cc(-c2nnc(C)o2)co1 | 869
CC1Cc2cc(-c3cc(CC(=O)NCCc4ccc(S(N)(=O)=O)cc4)no3)ccc2O1 (stereo not drawn) | 701
CC(=O)c1ccc(NC(=O)c2nc3nc(C)cc(C(F)F)n3n2)cc1 | 722
Cn1c(CCNC(=O)c2cccc(F)c2)nc2cccnc21 | 611
COC(=O)c1cc(S(=O)(=O)N2CCCC2C(=O)Nc2ccc(Cl)cc2C)cn1C (stereo not drawn) | 958
O=C(Nc1ccc2nncn2c1)Nc1ccccc1F | 659
COCCOC1CCC12CCN(Cc1ccccc1C#N)CC2 (stereo not drawn) | 610
CCOC(=O)c1csc(-n2nc(C(F)(F)F)cc2-c2ccc(OC)cc2)n1 | 1280

Other lines, results leading:

RP-LC retention time [s] | SMILES
938 | COc1ccc2[nH]cc(CCNC(=O)c3cccc(NC(=O)c4nnc(CC(C)C)s4)c3)c2c1
1060 | Cc1ccc(C)c(N2CCN(c3ccnc(SCC(=O)NCCCc4ccccc4)n3)CC2)c1
1270 | COc1ccc(-n2c(=O)c(C(=O)Nc3ccccc3Cl)c(O)c3cccnc32)cc1
705 | Cc1ccc(CNC(=O)CC2CCOC3(CCN(S(C)(=O)=O)CC3)C2)o1 (stereo not drawn)
905 | COc1ccc(S(=O)(=O)N2CCCC(c3nnnn3-c3ccccc3)C2)cc1 (stereo not drawn)
772 | CCOC(=O)CSc1nnc(NC(=O)c2ccc(S(=O)(=O)N(C)C)cc2)s1
649 | COc1ccc(NC(=O)CC(C)=O)c(OC)c1
629 | O=C(O)c1nnn(-c2ccc(F)cc2)c1-c1cccnc1
844 | Cc1ccc(S(=O)(=O)N2CCC(n3cnnc3-c3ccccc3)CC2)c(C)c1
885 | Cc1ccc(C(=O)N2CCN(c3ccc(=O)n(-c4ccc(Cl)cc4)n3)CC2)s1
950 | O=C(C1CCCN(c2nnc(-n3cccc3)s2)C1)N1CCN(c2ccc(F)cc2)CC1 (stereo not drawn)
681 | COc1ccc(NC(=O)Cn2c(=O)c(CCC(=O)NC3CCCC3)nc3ccccc32)cc1Cl
736 | O=S(=O)(Nc1cccn2cnnc12)c1ccc2c(c1)CCC2
672 | Cc1noc(C)c1S(=O)(=O)Nc1cc2c3c(c1)CC(=O)N3CCC2
1020 | N#Cc1cc2c(nc1SCC(=O)Nc1nc(-c3ccccc3)cs1)CCCC2=O
956 | CCc1noc(NC(C)=O)c1-c1ccc(C)c(S(=O)(=O)N2CCc3ccccc3C2)c1
890 | Cc1cc(N2CCN(S(=O)(=O)c3cccc(C(F)(F)F)c3)CC2)nc(NC2CCCCC2)n1
1070 | Cc1ccc(CCNC(=O)Cn2nc(-n3cccc3)c3c(C)cc(C)nc32)cc1
712 | C[C@@H]1CN(CCCn2c3ccccc3c3ccccc32)C[C@H](C)N1
1450 | Cc1sc2ncnc(N3CCCC(C)C3)c2c1C(=O)Nc1cc(F)ccc1Cl (stereo not drawn)
929 | Cc1cc(C(=O)N2c3ccccc3CC2c2nc(C3CC3)no2)nn1C (stereo not drawn)

RP-LC retention time [s] | SMILES
742 | CN(C)C(=O)C1c2ccccc2CCN1CC(=O)N1CCN(c2ccc(Cl)cc2)CC1 (stereo not drawn)
803 | CC(C)CC(NC(=O)CC1CCCCC1)C(=O)Nc1nc2ccccc2[nH]1 (stereo not drawn)
630 | O=C(c1cnc[nH]1)N1CC(F)(F)C[C@H]1c1nc(C2CC2)no1
628 | O=C(Cn1ncc2c(N3CCN(c4ccccn4)CC3)ncnc21)NCc1ccc(F)c(Cl)c1
779 | COc1ccc(NS(=O)(=O)c2ccc(/C=C\c3onc(C)c3NC(C)=O)cc2)cc1
980 | CCN1C(=O)COc2ccc(-c3csc(NC(=O)c4ccccc4Br)n3)cc21
831 | Cc1ccc(NC(=O)C2CC(=O)N(c3n[nH]c4cccc(F)c34)C2)cc1C (stereo not drawn)
660 | Cc1cc2[nH]c(C(=O)NCc3ccc(N4CCOCC4)cc3)c(CN3CCCC3)c2s1
1030 | CCc1nc(-c2ccc3c(c2)CCN3C(=O)Cc2ccc(F)cc2)no1
700 | O=C(c1ccc(Cn2cncn2)cc1)N1CCN(c2ccc(F)cc2)CC1
850 | O=C(CSc1nnc(-c2ccc3c(c2)OCCO3)o1)N1CCN(c2ccccc2)CC1
1130 | CCCOc1nc2ccccc2nc1N1CCCC(C(=O)Nc2ccc(OC)c(OC)c2)C1 (stereo not drawn)
786 | COc1ccc(NC(=O)N2CCC3(CC2)N=C(c2cccc(F)c2)C(=O)N3)c(OC)c1
594 | CSc1ccccc1C(=O)Nc1nc(CN2CCc3ccccc3C2)cs1
647 | COc1cc(-c2nc3ncccn3c2Nc2cccc(C)c2)ccc1O
686 | CCN(CC)c1ncnc2c(-c3ccccc3)cn(CC(=O)NC(C)C)c12
606 | Cc1nc(Nc2ccc(Br)cn2)sc1C(=O)N1CCN(C)CC1
795 | CCCn1cc(CCNC(=O)c2cc(F)ccc2Cl)c2cccnc21
772 | O=C(Nc1ccccc1)C1CCCN(C(=O)C2Sc3ccccc3NC2=O)C1 (stereo not drawn)
1090 | CCc1cccc(NC(=O)C2CCCN(S(=O)(=O)c3cc(-c4noc(CC)n4)cs3)C2)c1 (stereo not drawn)
677 | COCCN1C(=O)c2cccn2CC1CNS(=O)(=O)c1cccc2nsnc12 (stereo not drawn)
